Reference: the supplement of paper PMC10307832

Legend:
Experiment in all cases: relative viability (nuclei count vs DMSO), 5 days (fraction); higher = more cells survive
Pemetrexed + Trametinib = compound: Nc1nc2[nH]cc(CCc3ccc(C(=O)N[C@@H](CCC(=O)O)C(=O)O)cc3)c2c(=O)[nH]1 [Pemetrexed] + CC(=O)Nc1cccc(-n2c(=O)n(C3CC3)c(=O)c3c(Nc4ccc(I)cc4F)n(C)c(=O)c(C)c32)c1 [Trametinib] (partner 0.02 µM)
In short: (§1)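 Lung cancer cell lines in 1536-well plates got either a single drug or a fixed anchor-drug dose together with five library-drug doses (not always all listed) in √10 steps, by pin tool, on the day after seeding. Nuclei were counted after 5 days, and relative viability is the treated-to-vehicle ratio of nuclei counts. Values are medians of duplicate plates.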

Idelalisib + Dasatinib = compound: CC[C@H](Nc1ncnc2[nH]cnc12)c1nc2cccc(F)c2c(=O)n1-c1ccccc1 [Idelalisib] + Cc1nc(Nc2ncc(C(=O)Nc3c(C)cccc3Cl)s2)cc(N2CCN(CCO)CC2)n1 [Dasatinib] (partner 0.075 µM)
In short: as §1

Idelalisib + Decitabine = compound: CC[C@H](Nc1ncnc2[nH]cnc12)c1nc2cccc(F)c2c(=O)n1-c1ccccc1 [Idelalisib] + Nc1ncn([C@H]2C[C@H](O)[C@@H](CO)O2)c(=O)n1 [Decitabine] (partner 2 µM)
In short: as §1

Pemetrexed + Tozasertib = compound: Nc1nc2[nH]cc(CCc3ccc(C(=O)N[C@@H](CCC(=O)O)C(=O)O)cc3)c2c(=O)[nH]1 [Pemetrexed] + Cc1cc(Nc2cc(N3CCN(C)CC3)nc(Sc3ccc(NC(=O)C4CC4)cc3)n2)n[nH]1 [Tozasertib] (partner 0.1 µM)
In short: as §1

Cell Line | relative viability (Pemetrexed + Trametinib; first compound 0.002 µM) | relative viability (Pemetrexed + Trametinib; first compound 0.006325 µM) | relative viability (Pemetrexed + Trametinib; first compound 0.02 µM) | relative viability (Pemetrexed + Trametinib; first compound 0.06325 µM) | relative viability (Pemetrexed + Trametinib; first compound 0.2 µM) | relative viability (Idelalisib + Dasatinib; first compound 0.04 µM) | relative viability (Idelalisib + Dasatinib; first compound 0.1265 µM) | relative viability (Idelalisib + Dasatinib; first compound 0.4 µM) | relative viability (Idelalisib + Dasatinib; first compound 1.265 µM) | relative viability (Idelalisib + Dasatinib; first compound 4 µM) | relative viability (Idelalisib + Decitabine; first compound 0.04 µM) | relative viability (Idelalisib + Decitabine; first compound 0.1265 µM) | relative viability (Idelalisib + Decitabine; first compound 0.4 µM) | relative viability (Idelalisib + Decitabine; first compound 1.265 µM) | relative viability (Idelalisib + Decitabine; first compound 4 µM) | relative viability (Pemetrexed + Tozasertib; first compound 0.002 µM) | relative viability (Pemetrexed + Tozasertib; first compound 0.006325 µM) | relative viability (Pemetrexed + Tozasertib; first compound 0.02 µM) | relative viability (Pemetrexed + Tozasertib; first compound 0.06325 µM) | relative viability (Pemetrexed + Tozasertib; first compound 0.2 µM)
NCI-H2085 | 0.605 | 0.47 | 0.553 | 0.583 | 0.576 | 0.244 | 0.19 | 0.188 | 0.246 | 0.19 | 0.528 | 0.57 | 0.622 | 0.596 | 0.61 | 0.735 | 0.811 | 0.882 | 0.849 | 0.784
NCI-H3122 | 0.255 | 0.236 | 0.252 | 0.218 | 0.202 | 0.646 | 0.55 | 0.552 | 0.817 | 0.467 | 0.461 | 0.418 | 0.358 | 0.444 | 0.369 | 0.404 | 0.371 | 0.367 | 0.198 | 0.118
HCC-827 | 0.453 | 0.544 | 0.6 | 0.472 | 0.404 | 0.31 | 0.318 | 0.357 | 0.285 | 0.177 | 0.379 | 0.246 | 0.347 | 0.331 | 0.286 | 0.377 | 0.414 | 0.441 | 0.44 | 0.335
HARA | 0.592 | 0.395 | 0.797 | 0.41 | 0.17 | 0.279 | 0.235 | 0.174 | 0.228 | 0.238 | 0.642 | 0.62 |  | 0.548 | 0.586 | 0.13 | 0.0932 | 0.123 | 0.0911 | 0.0832
